Data on 4 compounds can be found in US12186413B2, “Non-cellular root canal filler and non-cellular dental tissue regeneration promotion kit” (KOWA COMPANY, LTD., priority 2019, dated 2025).

The test system of data set [1] is dental pulp. The following applies: cited from earlier work.
The next data set has as its system dental pulp stem cells. The following applies: dentin surfaces treated with trypsin in vitro; cited from earlier work.
The test system of data set [2] is dental pulp. The data set can be described thus: Dental pulp regeneration after pulpectomy in young dogs with non-cellular root canal filler. It is filed as in vivo, dog. The following applies: for dental pulp regeneration (H-E staining, morphological observation) / infiltration / internal absorption of inflammatory cells: 12-month-old dogs; for dental pulp regeneration (H-E staining, morphological observation) / infiltration / internal absorption of inflammatory cells / regeneration of dental pulp-like tissues (H-E staining): trypsin pretreatment; for dental pulp regeneration (H-E staining, morphological observation): 1.25 μg compound B or 0.83 μg SB328437 + 150 ng G-CSF in 20 μl collagen; for infiltration / internal absorption of inflammatory cells: filler with G-CSF and collagen; for amount of the regenerated dental pulp (ratio of regenerated dental pulp area to dental pulp cavity area): compound B filler compared with SB328437 filler. How it is done: After general anesthesia, pulpectomy was performed for maxillary and mandibular right and left anterior teeth in young (12-month-old) dogs. The openings were enlarged to the apex of the root with #55, then washed alternately with a 5% sodium hypochlorite solution and a 3% hydrogen peroxide solution, further washed with saline, dried, and then temporarily sealed with a resin completely. At 3 to 12 days after the pulpectomy, the temporary seals were removed, and the openings were washed alternately and washed with saline again. Then, the root canals were filled with 3% EDTA (Smear Clean, Nippon Shika Yakuhin Co., Ltd.), treated for 2 minutes, further washed with saline, and dried. Then, the root canals were pretreated by the application of trypsin preparation (5 mg of Francetin T powder (2,500 USP crystal trypsin per 10 mg, Mochida Pharmaceutical Co., Ltd.)/ml of 0.5% nanobubble water (prepared with Foamest 8 (NAC Corp.); see Koichiro Iohara and Misako Nakajima “Enhanced Delivery of Antibacterial Nanopolymers with Nanobubbles for the Complete Disinfection of the Root Canal System in a Canine Model of Intractable Periapical Disease”, The Japanese Journal Of Conservative Dentistry, Vol. 63, No. 1, p. 73-82) for 10 minutes, and then washed with saline. Subsequently, a CCR3 antagonist (1.25 μg of compound B or 0.83 μg of SB328437 (Tocris Bioscience)) as a regeneration promoting compound and 150 ng of G-CSF (Neutrogin, Chugai Pharmaceutical Co., Ltd.) as a chemotactic factor were added to 20 μl of extracellular matrix collagen (Koken Atelocollagen Implant, Koken Co., Ltd.) to prepare a non-cellular root canal filler, which was then filled into the root canals. Then, a gelatin sponge for hemostasis (Spongel, Astellas Pharma Inc.) was placed thereon, and the cavities were completely sealed with glass ionomer cement and a photopolymerizable resin. Then, 28 days after transplantation, the teeth were extracted, and 5 μm paraffin sections were prepared on longitudinal sections according to a standard method, stained with H-E, and then morphologically observed. The amount of the regenerated dental pulp was evaluated by measuring the ratio of the area of regenerated dental pulp to the area of a dental pulp cavity as to four sections per sample, and calculating the mean of four samples. Angiogenesis was evaluated by staining day 28 specimens with Fluorescein labeled Griffonia simplicifolia (Bandeiraea simplicifolia) Lectin I (GSL I, BSL I) and Fluorescein labeled Galanthus nivalis (Snowdrop) Lectin (GNL) (Vector Laboratories) (20 μg/ml) for 15 minutes, followed by comparative examination. Neurite extension was evaluated by immunostaining day-28 specimens with an anti-PGP9.5 antibody (UltraClone, 1:10,000), followed by comparative examination.
After general anesthesia, pulpectomy was performed for maxillary and mandibular right and left anterior teeth in young (11-month-old) dogs. The openings were enlarged to the apex of the root with #55, then washed alternately with a 5% sodium hypochlorite solution and a 3% hydrogen peroxide solution, and further washed with saline. The root canals were thoroughly dried with a paper point and temporarily sealed with cement and a resin completely after hemostasis. Then, 8 days after the pulpectomy, the temporary seals were removed, and the openings were washed alternately and washed with saline again. Then, the root canals were filled with 3% EDTA (Smear Clean, Nippon Shika Yakuhin Co., Ltd.), treated for 2 minutes, further washed with saline, and dried. Then, the root canals were pretreated by the application of a trypsin preparation (5 mg of Francetin T powder (2,500 USP crystal trypsin per 10 mg), Mochida Pharmaceutical Co., Ltd.)/ml of 0.5% nanobubble water (prepared with Foamest 8 (NAC Corp.); as described in Example 1)) for 10 minutes, and then washed with saline. […]

[3] abbreviates: Example 3, compound B filler, 28 days.
[4] abbreviates: Example 3, with and without trypsin pretreatment, 28 days.

Read-outs that look alike come from different tables or passages of the source.

In the case of trypsin, the dental pulp regeneration result was “promoted” in the data set with dental pulp [1] (middle-aged and elderly dogs, with dental pulp stem cell transplantation); “rarely observed” in the data set on dental pulp [1] (without the transplantation of dental pulp stem cells); “not found to be effective” in the data set on dental pulp [1] (young dogs, with dental pulp stem cell transplantation). Moreover, in the data set on dental pulp stem cells, the “adhesion of the cells” value is recorded as “increased the adhesion of the cells”. Further, the differentiation into odontoblasts result with dental pulp stem cells is listed as “exhibited enhancement in differentiation into odontoblasts”.
Take `COC(=O)[C@H](Cc1ccc([N+](=O)[O-])cc1)NC(=O)c1cccc2ccccc12` [SB328437, reference compound]: in the data set on dental pulp [2] (Example 1, 28 days), the “dental pulp regeneration (H-E staining, morphological observation)” value is recorded as “found to cause dental pulp regeneration of loose connective tissues rich in blood vessels”; the “infiltration / internal absorption of inflammatory cells” value is “neither the infiltration nor internal absorption of inflammatory cells was observed”; the “amount of the regenerated dental pulp (ratio of regenerated dental pulp area to dental pulp cavity area)” value is “No statistically significant difference”. In the data set on dental pulp [2] (Example 1, day 28 specimens), the “angiogenesis (lectin staining)” value was “confirmed”, the “neurite extension (PGP9.5 immunostaining)” value is reported as “confirmed” and the “odontoblast-like cell adhesion to dentin side wall / dentin-like hard tissue formation” value was “odontoblast-like cells adhere to the side wall of the dentin to form dentin-like hard tissues”.
Take `CS(=O)(=O)Nc1cccc(CNCCN2Cc3ccc(F)cc3CC2Cc2ccc(F)cc2)c1.O=C(O)CC(O)(CC(=O)O)C(=O)O` (single isomer, unassigned; (+)) [compound C, (+)-N-[3-(methanesulfonylamino)benzyl]-2-[6-fluoro-3-(4-fluorobenzyl)-3,4-dihydroisoquinolin-2(1H)-yl]ethanamine monocitrate]: the “regeneration of dental pulp-like tissues (H-E staining)” value in the data set on dental pulp [2] (Example 4, 11-month-old dogs, 1.2 μg compound C + 150 ng G-CSF in collagen, 28 days) was “found to sufficiently regenerate dental pulp-like tissues”. In the data set with dental pulp [2] (Example 4, 28 days), the “area of the dentin (ratio to area of tooth) versus filler containing no compound C” value was “tended to increase the area of the dentin” and the “density of dentin cells (within 1 mm from root canal side wall) versus filler containing no compound C” value is “increased the density of dentin cells”.
For the compound `CC(C)Nc1ccc(CNCCN2Cc3ccc(F)cc3CC2Cc2ccc(F)cc2)cc1.O=C(O)/C=C/C(=O)O` (single isomer, unassigned; (+)) [compound B, (+)-4-[[2-[6-fluoro-3-(4-fluorobenzyl)-3,4-dihydroisoquinolin-2(1H)-yl]ethylamino]methyl]-N-isopropylaniline monofumarate], in the data set with dental pulp [2] (Example 1, 28 days), the “dental pulp regeneration (H-E staining, morphological observation)” value was “found to cause dental pulp regeneration of loose connective tissues rich in blood vessels”; the “infiltration / internal absorption of inflammatory cells” value is reported as “neither the infiltration nor internal absorption of inflammatory cells was observed”; the “amount of the regenerated dental pulp (ratio of regenerated dental pulp area to dental pulp cavity area)” value is listed as “No statistically significant difference”. In the data set on dental pulp [2] (Example 1, day 28 specimens), the “angiogenesis (lectin staining)” value was “confirmed”, the “neurite extension (PGP9.5 immunostaining)” value was “confirmed” and the “odontoblast-like cell adhesion to dentin side wall / dentin-like hard tissue formation” value is recorded as “odontoblast-like cells adhere to the side wall of the dentin to form dentin-like hard tissues”. Besides, the “regeneration of dental pulp-like tissues (H-E staining)” value in the data set on dental pulp [2] (Example 2, 11-month-old dogs, 1.25 μg compound B + 150 ng G-CSF in collagen, 28 days) is “found to sufficiently regenerate dental pulp-like tissues”. Moreover, in the data set with dental pulp [2] (Example 2, 28 days), the “amount of the regenerated dental pulp versus filler containing no compound B” value is “Statistically significant difference”, the “angiogenesis (BS-1 lectin staining) versus filler containing no compound B” value is reported as “similar” and the “neurite extension (PGP9.5 immunostaining) versus filler containing no compound B” value is “similar”. The “regeneration of dental pulp tissues (H-E staining)” value in the data set with dental pulp [2] (Example 3, 11-month-old dogs, with or without trypsin pretreatment, 1.25 μg compound B + 150 ng G-CSF in collagen, 28 days) was “regeneration of dental pulp tissues was observed, regardless of whether trypsin pretreatment was performed or not”. For the same compound, in the data set with dental pulp [2] (setting [3]), the “amount of regenerated dental pulp, with versus without trypsin pretreatment” value is recorded as “tended to slightly increase the amount of regenerated dental pulp, albeit with no statistically significant difference”; the “odontoblast-like cell adhesion to dentin side wall and dentin-like hard tissue amount, with versus without trypsin pretreatment” value is “tended to allow more odontoblast-like cells to adhere to the side wall of the dentin and form dentin-like hard tissues in a slightly higher amount”. In the data set on dental pulp [2] (setting [4]), the “angiogenesis (BS-1 lectin staining)” value was “similarly observed in both these cases” and the “neurite extension (PGP9.5 immunostaining)” value is “similarly observed in both these cases”. The “dental pulp regeneration, odontoblast-like cell adhesion and dentin-like hard tissue formation” value with dental pulp [2] (Example 3, without trypsin pretreatment, 28 days) is “regenerates the dental pulp with angiogenesis and neurite extension”.
